Results reported in patent US8216580B2, “Sulfatases and methods of use thereof” (The Regents of the University of California, priority 2000, dated 2012).

Assay: Endo-glucosamine-6-sulfatase assay against intact heparin (heparinase digestion, disaccharide HPLC)
Assay type: biochemical, porcine
Settings: for Endo-glucosamine-6-sulfatase activity: 10 μg heparin, pH 7.5, 37° C., 8 hr, means±S.D., three reactions
Experimental: The procedures of Yoshida et al ((1989) Anal. Biochem. 177:327-332) were adapted for these assays. CM from transfected CHO cells (wild-type Sulfs, vector control or the double cysteine mutants) was prepared as described above. The standard reaction mixture contained 5 μmol of Tris-HCl, pH 7.5, 1 μmol of MgCl2, 10 μg of porcine intestinal heparin (Sigma, St. Louis, Mo.) and 20 μl of the 100-fold concentrated CM in a total volume of 100 μl. After incubation at 37° C. for 8 hr, the reaction was stopped by heating at 100° C. for 2 min. A mixture of 1 milliunit of Heparinase I (EC 4.2.2.7, Sigma), 0.25 milliunits of Heparinase II (Sigma) and 0.1 milliunits of Heparinase III (EC 4.2.2.8, Sigma) in 1.5 μl of 50 mM Tris-HCl, pH 7.5, was added to the reaction mixture and incubated at 37° C. for 3 hr. The digestion was stopped by heating at 100° C. for 2 min, and the mixture was filtered by centrifugation in an Ultrafree-MC filter (Millipore).
The disaccharides of the digested heparin were then analyzed by HPLC on a Partisil-10 SAX column (Whatman, Fairfield, N.J.) run at 41° C. Disaccharides were eluted from the column by increasing the ionic strength as follows: time 0-5 min, 12 mM KH2PO4; time 5-40 minutes, gradient from 12 mM to 600 mM; time 40-45 min, 600 mM. Absorbance at 232 nm was monitored and components were identified by comparison with authentic unsaturated disaccharide markers from Sigma, i.e. ΔDiHS-0S, ΔDiHS-6S, ΔDiHS-NS, ΔDiHS-(N,6)diS, ΔDiHS-(N,2)diS and ΔDiHS-(N,6,2)triS. The endo-glucosanine-6-sulfatase activities of human Sulf-1 and Sulf-2 against heparin proceeded linearly up to 10 hr under these conditions. In other assays, 10 μg of chondroitin 6-sulfate was employed as a substrate in the standard assay. After incubation with CM, 15 milliunits of Chondroitinase ABC (EC 4.2.2.4, Sigma) was used to fragment the chondroitin sulfate. The standards used were as follows: ΔDi-0S, ΔDi-6S, ΔDi-4S, ΔDi-diSD(2,6) and ΔDi-diSE(4,6). All were from Oxford GlycoSystems Inc.
Intact heparin (10 μg) was treated with conditioned medium from Sulf transfected CHO cells. To analyze activity on specific sulfation modifications, we digested the treated heparin with a mixture of bacterial heparinases and analyzed the disaccharide products by HPLC using standards (Yoshida, supra). Both HSulf-1 CM and Hsulf-2 CM produced an ≈80% reduction in the amount of trisulfated units ([…]) corresponding to IdoA2S-GlcNS6S and a parallel increase in that of disulfated units (ΔDiHS-(N,2)diS) corresponding to IdoA2S-GlcNS (FIG. 16A-C). There were no effects on the disulfated units ΔDiHS-(N,6)diS, monosulfated or non-sulfated units. Specific activities were calculated based on the volume of CM (Table 3). The endosulfatase activities of Sulf-1 and Sulf-2 CM were increased 9-fold and 10-fold respectively relative to CM from mock transfected cells (Table 3). […] Further selectivity of the endosulfatase activity was indicated when we employed chondroitin 6-sulfate as a substrate. […] Thus the Sulfs are active against intact heparin.
Endo-glucosamine-6-sulfatase activity was measured against intact heparin as described in above using CM derived from CHO cells transfected with the indicated vectors. HSulf-1 ΔCC and HSulf-2 ΔCC denote the CC87, 88AA and CC88, 89AA mutants, respectively. Endosulfatase activity was defined by calculating the moles of unsaturated trisulfated disaccharides from which the sulfate group on C-6 position was liberated in the standard assay (FIGS. 16A-F) by the Sulfs as compared to levels in untreated control samples. Values shown are means±S.D. based on three independent reactions.

[1] = CM from transfected CHO cells, intact heparin 10 μg

Substance	Endo-glucosamine-6-sulfatase activity (CM from transfected CHO cells)	effects on the disulfated units ΔDiHS-(N,6)diS, monosulfated or non-sulfated units [1]	reduction in the amount of trisulfated units ([…]) corresponding to IdoA2S-GlcNS6S [1]	endosulfatase activity increase relative to CM from mock transfected cells (based on Table 3) [fold]	removal of sulfate from the 6-position of glucosamine within the tri-sulfated units (intact heparin, neutral pH) [%]
HSulf-2 ΔCC: catalytically inactive HSulf-2, cysteines 88 and 89 mutated to alanines (CC88, 89AA)	5.6 ± 0.6 pmol/hr/ml of medium	–	–	–	–
HSulf-2: Human SULF2, an 870 amino acid sulfatase protein, SEQ ID NO:06; expressed with C-terminal Myc-His tag	96.6 ± 0.5 pmol/hr/ml of medium	no effects	≈ 80%	10	80
